Results reported in patent US20060063755A1, “Loxapine analogs and methods of use thereof” (priority 2004, published 2006).

Legend:
alpha 2 receptors = assay: Alpha 2 receptor binding assay; details: read-out: Ki Alpha2
Description: (§1) Binding assays were performed using the disclosed sleep-inducing agents and derivatives selected from those listed in Table 1 in competitive binding assays with known standards for the H1 histamine receptor, and the M1, M2, and M3 muscarinic receptors, alpha 1 and alpha 2 receptors, and D1 and D2 receptors.

D2 receptors [1] = molecular target: D2 receptors (Rattus norvegicus, UniProt P61169); assay: Dopamine D2 binding, rat
Description: as §1

Dopamine, D1 = Dopamine, D1 (Homo sapiens, UniProt P21728); assay: Dopamine D1 (human recombinant) binding assay
Description: as §1
Dopamine, D1 (human recombinant) binding assay was performed according to published procedures. See, e.g., Jarvie, et al. J. Recept Res., 13(1-4): 573-90 (1993); and Billard, et al. Life Sciences, 35(18): 1885-93 (1984), with modifications

hERG channel = hERG channel (Homo sapiens, UniProt Q12809); assay: hERG channel current block, whole cell recording in HEK293 cells; format: cell-based; details: HEK293 cells expressing hERG
Description: Other in vitro selection criteria for loxapine analogs of the invention includes hERG binding.
(Brown and Rampe (2000)).
In one embodiment of the HERG assay, the positive control (i.e., reference compound) is terfenadine (Sigma, St. Louis Mo.), which has been shown, at a concentration of 60 nM, to block HERG current by approximately 75%. Test compounds are delivered in HEPES-buffered physiological saline (HB-PS)+0.1% dimethyl sulfoxide (DMSO).
Clin. Exp. Allergy 29 Suppl 3, 174-181.
If the final DMSO concentration must be greater than 0.3%, to reach a specified test article concentration, a separate vehicle control test with an n>2 was performed at the highest final DMSO concentration.
Each cell acted as its own control. […] One concentration of the positive control article (60 nM terfenadine) was applied to two cells (n≧2).

M1 muscarinic receptor = molecular target: T1, M1 muscarinic receptor (Homo sapiens, UniProt P11229); assay: M1 binding assay, [3H]-scopolamine N-methyl chloride, CHO cells; details: human recombinant
T1 construct: purchased PerkinElmer, Inc., Wellesley, Mass; host or cells: CHO cells
T1 sequence (P11229 1-460): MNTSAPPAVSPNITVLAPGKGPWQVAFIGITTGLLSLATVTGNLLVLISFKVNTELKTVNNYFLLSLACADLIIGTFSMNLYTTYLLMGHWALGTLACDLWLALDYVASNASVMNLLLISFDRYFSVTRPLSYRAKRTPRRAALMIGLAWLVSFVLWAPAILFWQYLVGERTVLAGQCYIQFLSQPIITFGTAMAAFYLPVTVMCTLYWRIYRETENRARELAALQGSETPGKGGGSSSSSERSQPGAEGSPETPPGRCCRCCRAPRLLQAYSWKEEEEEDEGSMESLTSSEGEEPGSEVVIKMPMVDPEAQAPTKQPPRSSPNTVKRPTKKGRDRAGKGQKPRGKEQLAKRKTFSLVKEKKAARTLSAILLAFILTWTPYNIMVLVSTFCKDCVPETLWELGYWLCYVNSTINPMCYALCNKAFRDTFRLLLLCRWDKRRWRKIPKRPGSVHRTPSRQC

D2 receptors [2] = molecular target: D2 receptors (Homo sapiens, UniProt P14416); assay: Dopamine D2 binding assay (human)
Description: as §1, with “receptors. […]” for “receptors.”

M3 muscarinic receptor = molecular target: T2, M3 muscarinic receptor (Homo sapiens, UniProt P20309); assay: M3 binding assay, [3H]-scopolamine N-methyl chloride, CHO cells; details: human recombinant
T2 construct: purchased PerkinElmer, Inc., Wellesley, Mass; host or cells: CHO cells

alpha 1 receptors = assay: Alpha 1 receptor binding assay; details: read-out: Ki Alpha1
Description: as §1

H1 histamine receptor = molecular target: T3, H1 histamine receptor (Bos taurus, UniProt P30546); assay: H1 competitive binding assay, [3H]pyrilamine, bovine cerebellar membranes; details: bovine cerebellar membrane
T3 construct: the receptors were obtained from bovine cerebellar membrane tissue; from tissue; host or cells: bovine cerebellar membranes

M2 muscarinic receptor = molecular target: T4, M2 muscarinic receptor (Homo sapiens, UniProt P08172); assay: M2 binding assay, [3H]-scopolamine N-methyl chloride, CHO cells; details: human recombinant
T4 construct: purchased PerkinElmer, Inc., Wellesley, Mass; host or cells: CHO cells
T4 sequence (P08172 1-466): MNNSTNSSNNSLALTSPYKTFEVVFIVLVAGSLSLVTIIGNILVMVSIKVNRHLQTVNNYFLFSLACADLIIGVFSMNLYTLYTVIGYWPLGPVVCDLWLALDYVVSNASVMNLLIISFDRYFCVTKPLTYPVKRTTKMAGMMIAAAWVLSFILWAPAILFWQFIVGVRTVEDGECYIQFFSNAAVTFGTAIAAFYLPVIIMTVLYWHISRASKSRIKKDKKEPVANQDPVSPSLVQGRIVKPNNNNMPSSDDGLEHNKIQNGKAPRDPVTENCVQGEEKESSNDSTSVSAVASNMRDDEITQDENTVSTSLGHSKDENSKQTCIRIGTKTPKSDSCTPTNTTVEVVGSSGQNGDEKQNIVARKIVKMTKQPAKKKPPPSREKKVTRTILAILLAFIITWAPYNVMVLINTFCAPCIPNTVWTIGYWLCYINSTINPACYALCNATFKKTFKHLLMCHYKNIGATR

Dopamine, D1, sequence (P21728 whole entry): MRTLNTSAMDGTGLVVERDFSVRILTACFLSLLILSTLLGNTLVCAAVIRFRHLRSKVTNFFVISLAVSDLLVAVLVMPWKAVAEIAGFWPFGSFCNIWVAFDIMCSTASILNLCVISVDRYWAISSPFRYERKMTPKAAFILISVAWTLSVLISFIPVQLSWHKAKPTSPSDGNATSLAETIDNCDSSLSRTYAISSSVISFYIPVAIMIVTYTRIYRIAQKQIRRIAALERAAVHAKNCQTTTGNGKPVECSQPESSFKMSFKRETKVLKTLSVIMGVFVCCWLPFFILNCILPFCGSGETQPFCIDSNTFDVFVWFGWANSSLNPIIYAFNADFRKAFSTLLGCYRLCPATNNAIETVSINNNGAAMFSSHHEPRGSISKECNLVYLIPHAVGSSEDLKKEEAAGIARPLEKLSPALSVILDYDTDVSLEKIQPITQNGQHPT
D2 receptors (Homo sapiens, UniProt P14416), sequence (P14416 whole entry): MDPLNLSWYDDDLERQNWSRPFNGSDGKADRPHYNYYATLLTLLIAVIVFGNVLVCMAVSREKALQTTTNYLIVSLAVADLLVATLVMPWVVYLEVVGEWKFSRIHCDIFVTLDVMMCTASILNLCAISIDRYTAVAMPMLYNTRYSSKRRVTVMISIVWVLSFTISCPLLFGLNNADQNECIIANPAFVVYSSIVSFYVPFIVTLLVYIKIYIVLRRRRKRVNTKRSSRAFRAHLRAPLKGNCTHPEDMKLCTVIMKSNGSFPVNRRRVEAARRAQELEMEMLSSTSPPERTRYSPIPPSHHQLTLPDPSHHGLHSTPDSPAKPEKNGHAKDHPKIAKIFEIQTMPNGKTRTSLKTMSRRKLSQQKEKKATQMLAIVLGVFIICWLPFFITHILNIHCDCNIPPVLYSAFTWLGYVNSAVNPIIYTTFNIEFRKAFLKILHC
T2 sequence (P20309 whole entry): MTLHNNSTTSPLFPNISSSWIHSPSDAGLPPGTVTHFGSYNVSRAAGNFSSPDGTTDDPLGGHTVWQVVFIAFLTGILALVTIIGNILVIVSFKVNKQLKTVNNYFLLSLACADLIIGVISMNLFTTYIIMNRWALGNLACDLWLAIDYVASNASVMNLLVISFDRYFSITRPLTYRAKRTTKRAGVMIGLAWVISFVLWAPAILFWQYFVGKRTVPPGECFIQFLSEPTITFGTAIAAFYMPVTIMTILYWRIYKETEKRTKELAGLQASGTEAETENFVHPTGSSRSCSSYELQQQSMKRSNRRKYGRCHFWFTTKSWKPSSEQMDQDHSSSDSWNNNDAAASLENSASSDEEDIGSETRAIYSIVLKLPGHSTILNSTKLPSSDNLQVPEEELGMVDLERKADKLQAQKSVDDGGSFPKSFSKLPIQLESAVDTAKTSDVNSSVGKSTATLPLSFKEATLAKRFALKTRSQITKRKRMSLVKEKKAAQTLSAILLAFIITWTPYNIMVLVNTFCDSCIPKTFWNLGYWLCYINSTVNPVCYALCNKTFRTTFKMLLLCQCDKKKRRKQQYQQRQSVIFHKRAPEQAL
T3 sequence (P30546 whole entry): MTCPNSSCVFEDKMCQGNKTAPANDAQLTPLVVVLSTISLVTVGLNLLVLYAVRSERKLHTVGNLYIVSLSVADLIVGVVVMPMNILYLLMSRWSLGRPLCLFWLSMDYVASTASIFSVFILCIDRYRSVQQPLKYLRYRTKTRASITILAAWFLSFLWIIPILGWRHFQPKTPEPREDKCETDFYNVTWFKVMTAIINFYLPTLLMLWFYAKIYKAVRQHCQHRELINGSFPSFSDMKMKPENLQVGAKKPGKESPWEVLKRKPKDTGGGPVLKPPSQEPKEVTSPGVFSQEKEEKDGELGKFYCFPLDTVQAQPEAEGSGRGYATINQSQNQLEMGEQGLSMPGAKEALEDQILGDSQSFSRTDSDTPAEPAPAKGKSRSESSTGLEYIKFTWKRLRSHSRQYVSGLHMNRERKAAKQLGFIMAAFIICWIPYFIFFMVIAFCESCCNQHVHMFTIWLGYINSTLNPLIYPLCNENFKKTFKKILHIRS
hERG channel, sequence (Q12809 whole entry): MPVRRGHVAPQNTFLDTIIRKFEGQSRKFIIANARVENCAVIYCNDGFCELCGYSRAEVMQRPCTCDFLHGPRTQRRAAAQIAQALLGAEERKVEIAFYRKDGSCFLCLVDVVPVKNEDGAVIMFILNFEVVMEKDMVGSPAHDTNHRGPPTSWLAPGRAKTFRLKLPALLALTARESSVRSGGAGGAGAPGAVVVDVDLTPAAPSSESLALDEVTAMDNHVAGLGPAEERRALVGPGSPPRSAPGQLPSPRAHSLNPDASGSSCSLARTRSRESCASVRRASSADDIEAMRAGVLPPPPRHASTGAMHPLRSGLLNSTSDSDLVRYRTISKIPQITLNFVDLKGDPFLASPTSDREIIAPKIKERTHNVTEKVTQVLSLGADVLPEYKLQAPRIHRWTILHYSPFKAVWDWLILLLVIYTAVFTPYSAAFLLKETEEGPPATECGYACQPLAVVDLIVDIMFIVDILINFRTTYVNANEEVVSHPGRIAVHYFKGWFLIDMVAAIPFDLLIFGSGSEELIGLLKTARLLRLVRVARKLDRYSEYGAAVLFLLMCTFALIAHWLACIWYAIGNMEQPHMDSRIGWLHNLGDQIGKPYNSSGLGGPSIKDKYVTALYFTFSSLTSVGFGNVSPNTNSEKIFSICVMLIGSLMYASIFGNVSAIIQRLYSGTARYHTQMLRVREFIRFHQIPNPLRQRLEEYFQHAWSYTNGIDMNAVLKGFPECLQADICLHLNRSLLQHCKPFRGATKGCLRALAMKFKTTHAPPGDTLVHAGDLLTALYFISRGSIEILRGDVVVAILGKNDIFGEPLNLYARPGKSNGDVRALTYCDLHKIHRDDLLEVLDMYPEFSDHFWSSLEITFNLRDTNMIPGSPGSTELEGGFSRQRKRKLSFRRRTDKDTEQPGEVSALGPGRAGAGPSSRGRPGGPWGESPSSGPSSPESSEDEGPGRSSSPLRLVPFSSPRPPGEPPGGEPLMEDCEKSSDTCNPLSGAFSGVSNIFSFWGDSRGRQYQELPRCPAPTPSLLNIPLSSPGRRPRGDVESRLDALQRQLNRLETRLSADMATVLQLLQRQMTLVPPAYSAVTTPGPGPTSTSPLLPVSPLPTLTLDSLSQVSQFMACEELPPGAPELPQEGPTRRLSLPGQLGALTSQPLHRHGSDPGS
D2 receptors (Rattus norvegicus, UniProt P61169), sequence (P61169 whole entry): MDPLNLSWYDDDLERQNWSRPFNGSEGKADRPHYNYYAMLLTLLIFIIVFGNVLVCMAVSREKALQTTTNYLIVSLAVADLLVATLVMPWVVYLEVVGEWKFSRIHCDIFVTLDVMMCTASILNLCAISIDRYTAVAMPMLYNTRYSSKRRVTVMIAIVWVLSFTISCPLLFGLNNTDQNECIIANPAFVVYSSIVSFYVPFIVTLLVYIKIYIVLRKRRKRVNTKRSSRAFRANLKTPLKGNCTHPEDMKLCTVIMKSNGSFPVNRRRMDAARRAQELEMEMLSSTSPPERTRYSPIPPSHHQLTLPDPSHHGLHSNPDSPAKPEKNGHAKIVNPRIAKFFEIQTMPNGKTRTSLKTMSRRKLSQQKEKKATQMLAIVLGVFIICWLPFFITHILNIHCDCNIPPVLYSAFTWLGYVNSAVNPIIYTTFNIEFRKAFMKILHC

Row | Compound | Ki (alpha 2 receptors) | Ki (D2 receptors [1]) | Ki (Dopamine, D1) | hERG at 10 micromolar (% blocking of the hERG channel) (hERG channel) | Ki (M1 muscarinic receptor) | Ki (D2 receptors [2]) | Ki (M3 muscarinic receptor) | Ki (alpha 1 receptors) | Ki (H1 histamine receptor) | Ki (M2 muscarinic receptor)
1 | CC(C)(CN1CCN(C2=Nc3ccccc3Oc3ccc(F)cc32)CC1)C(=O)O [Compound 4] | > 10 µM | 2.73 µM | > 10 µM | 8% | > 10 µM | > 10 µM | > 10 µM | > 10 µM | – | –
2 | CC(C)(CN1CCN(C2=Nc3ccccc3Oc3ccc(O)cc32)CC1)C(=O)O [Compound 14] | > 10 µM | – | 0.942 µM | 0.30% | > 10 µM | > 10 µM | > 10 µM | > 10 µM | 0.283 µM | > 10 µM
3 | Cc1ccc2c(c1)N=C(N1CCN(CC(C)(C)C(=O)O)CC1)c1ccccc1O2 [Compound 19] | > 10 µM | – | 6.8 µM | 9.90% | > 10 µM | 3.16 µM | > 10 µM | > 10 µM | 0.0395 µM | > 10 µM
4 | Cc1ccc2c(c1)N=C(N1CCN(CC(C)(C)C(=O)O)CC1)c1cc(C)ccc1O2 [Compound 20] | > 10 µM | – | 1.93 µM | 5.30% | > 10 µM | 1.59 µM | > 10 µM | 1.96 µM | 0.0768 µM | > 10 µM
5 | COc1ccc2c(c1)N=C(N1CCN(CC(C)(C)C(=O)O)CC1)c1ccccc1O2 [Compound 21] | > 10 µM | – | > 10 µM | 0% | > 10 µM | > 10 µM | > 10 µM | > 10 µM | 0.0572 µM | > 10 µM
6 | COc1ccc2c(c1)N=C(N1CCN(CC(C)(C)C(=O)O)CC1)c1cc(OC)ccc1O2 [Compound 23] | > 10 µM | – | > 10 µM | 8.90% | > 10 µM | > 10 µM | > 10 µM | > 10 µM | 0.135 µM | > 10 µM
7 | Cc1ccc2c(c1)Oc1ccccc1C(N1CCN(CC(C)(C)C(=O)O)CC1)=N2 [Compound 30] | > 10 µM | – | 5.06 µM | 4.50% | > 10 µM | > 10 µM | > 10 µM | > 10 µM | 0.0906 µM | > 10 µM
8 | COc1ccc2c(c1)Oc1ccccc1C(N1CCN(CC(C)(C)C(=O)O)CC1)=N2 [Compound 32] | > 10 µM | – | > 10 µM | 1.60% | > 10 µM | > 10 µM | > 10 µM | > 10 µM | 3.77 µM | > 10 µM
9 | COc1ccc2c(c1)Oc1ccccc1N=C2N1CCN(CC(C)(C)C(=O)O)CC1 [Compound 39] | > 10 µM | – | > 10 µM | 61.40% | > 10 µM | > 10 µM | > 10 µM | > 10 µM | 0.0987 µM | > 10 µM
10 | Cc1ccc2c(c1)C(N1CCN(CC(C)(C)C(=O)O)CC1)=Nc1cc(Br)ccc1O2 [Compound 50] | 1.95 µM | – | 1.14 µM | 45.00% | > 10 µM | 0.36 µM | > 10 µM | 0.595 µM | 0.0318 µM | > 10 µM
11 | COc1ccc2c(c1)C(N1CCN(CC(C)(C)C(=O)O)CC1)=Nc1cc(Br)ccc1O2 [Compound 51] | 0.966 µM | – | 1.04 µM | 32% | > 10 µM | 0.17 µM | > 10 µM | 0.148 µM | 0.0278 µM | > 10 µM
